# Experimental data as given in patent publication US11517587B2, “Drug therapy to inhibit chemotherapy-induced adverse effects and related pharmaceutical compositions, diagnostics, screening techniques and kits” (YALE UNIVERSITY, priority 2011, dated 2022).
# B1: calpastatin: a natural calpain antagonist, expressed in cells (protein, UniProt P20810 1-708, looked up)
# Calpastatin: MNPTETKAIPVSQQMEGPHLPNKKKHKKQAVKTEPEKKSQSTKLSVVHEKKSQEGKPKEHTEPKSLPKQASDTGSNDAHNKKAVSRSAEQQPSEKSTEPKTKPQDMISAGGESVAGITAISGKPGDKKKEKKSLTPAVPVESKPDKPSGKSGMDAALDDLIDTLGGPEETEEENTTYTGPEVSDPMSSTYIEELGKREVTIPPKYRELLAKKEGITGPPADSSKPIGPDDAIDALSSDFTCGSPTAAGKKTEKEESTEVLKAQSAGTVRSAAPPQEKKRKVEKDTMSDQALEALSASLGTRQAEPELDLRSIKEVDEAKAKEEKLEKCGEDDETIPSEYRLKPATDKDGKPLLPEPEEKPKPRSESELIDELSEDFDRSECKEKPSKPTEKTEESKAAAPAPVSEAVCRTSMCSIQSAPPEPATLKGTVPDDAVEALADSLGKKEADPEDGKPVMDKVKEKAKEEDREKLGEKEETIPPDYRLEEVKDKDGKPLLPKESKEQLPPMSEDFLLDALSEDFSGPQNASSLKFEDAKLAAAISEVVSQTPASTTQAGAPPRDTSQSDKDLDDALDKLSDSLGQRQPDPDENKPMEDKVKEKAKAEHRDKLGERDDTIPPEYRHLLDDNGQDKPVKPPTKKSEDSKKPADDQDPIDALSGDLDSCPSTTETSQNTAKDKCKKAASSSKAPKNGGKAKDSAKTTEETSKPKDD
# Columns and labels:
# [1] = system: NCS-1; assay: NCS-1 levels by Western blot in Taxol-treated SHSY-5Y neuroblastoma cells; assay type: cell-based
# Description: (§1) Data shown are the average of three experiments.
# as §1
# More specifically, AV411 (ibudilast) is a drug used in several Asian countries for treatment of bronchial asthma, cerebrovascular disorders, post-stroke dizziness, and ocular allergies. In accordance with the Materials and Methods section of PNAS, Jun.
# as §1
# [2] = system: lung cancer cell line (H1975); assay: Xenograft tumor volume in nude mice; assay type: in vivo; details: LiCl in the presence of Taxol treatment, short time after initiation of co-therapy
# Experimental: FIG. 4B: tumor volume effect.
# One or more murine models as described in Richmond, et al., Mouse xenograft models vs GEM models for human cancer therapeutics, Dis Model Mech. 2008 September-October; 1(2-3): 78-82, are prepared. As explained by Richmond, et al., “[t]hese models are used to investigate the factors involved in malignant transformation, invasion and metastasis, as well as to examine response to therapy. One of the most widely used models is the human tumor xenograft. […] For example, the xenograft will be readily accepted by athymic nude mice, severely compromised immunodeficient (SCID) mice, or other immunocompromised mice (Morton and Houghton, 2007). Depending upon the number of cells injected, or the size of the tumor transplanted, the tumor will develop over 1-8 weeks (or in some instances 1-4 months, or longer), and the response to appropriate therapeutic regimes can be studied in vivo.”
# Pursuant to the above protocol, a lung cancer cell line (H1975) was injected into nude mice; after two weeks tumors were large enough to measure. Exemplary dosages for use in the above murine models include 25 mg/kg taxol injected 1 time per week (2×), lithium (12.8 mg/kg) injected 1 hour prior to paclitaxel injection. Protection of NCS-1 levels and intracellular Ca^2+ signals in cells is evaluated using techniques as described in Examples 1-3.
# [3] = system: SHSY-5Y cells; assay: Intracellular Ca2+ signal in stimulated SHSY-5Y cells; assay type: cell-based
# Experimental: FIG. 2A: Protection of the intracellular calcium signal by 1 uM AV411. […] After 200 seconds thapsigargin (TG, an inhibitor of the intracellular Ca^2+ pump) was added to indicate that the intracellular stores were filled and the cells were viable (second arrow). […] Each line represents the average of at least 45 cells (at least 15 cells measured in three separate experiments).
# FIG. 2B: Protection of the intracellular calcium signal by 500 uM LiCl. Representative Ca^2+ responses of SHSY-5Y cells stimulated with 200 nM carbachol (at first arrow) to induce a transient release of Ca^2+ from intracellular stores. After 200 seconds thapsigargin (TG, an inhibitor of the intracellular Ca^2+ pump) was added to indicate that the intracellular stores were filled and the cells were viable (second arrow). […] Addition of 500 uM LiCl alone (pink trace)induced a small decrease in the Ca^2+ transient. […] Each line represents the average of at least 45 cells (at least 15 cells measured in three separate experiments.
# FIG. 3B: Protection of the intracellular calcium signal by 5.0 mM LiCl. Representative Ca^2+ responses of SHSY-5Y cells treated with 800 ng/mL Taxol for 6 hours in the presence and absence of 5.0 mM. The experiment is the same as described for FIG. 2 except that 5 mM LiCl was used.
# […] After 200 seconds thapsigargin (TG, an inhibitor of the intracellular Ca^2+ pump) was added to indicate that the intracellular stores were filled and the cells were viable (second arrow). […] Each line represents the average of at least 45 cells (at least 15 cells measured in three separate experiments).
# Intracellular Ca^2+ signals monitored in intact cells were also found to be reduced by treatment with Taxol for 6 hours (FIGS. 2B and 3B; compare control treatment (black trace) with Taxol treatment (blue trace) in both figures).
# [4] = molecular target: NCS-1 / inositol 1,4,5 trisphosphate receptor (InsP3R) (Homo sapiens, UniProt P62166); assay: NCS-1 binding to the InsP3R
# Description: Based upon our observations regarding the activity of lithium carbonate, valproic acid, and chlorpromazine, we believe that there are additional drugs in these classes that will have the desired effect of preventing chemotherapy-induced polyneuropathy such as, but not limited to, […].
# [5] = molecular target: NCS-1 (Homo sapiens, UniProt P62166); assay: Tryptophan fluorescence binding to NCS-1
# [6] = system: mice; assay: Paclitaxel-induced myelin damage in mice; assay type: in vivo; details: paclitaxel-treated mice without Li-cotherapy
# [7] = system: calpain; assay: Calpain activity after low dose paclitaxel; assay type: in vivo, mice
# Description: FIG. 3: Low dose paclitaxel increases calpain activity. Lithium treatment prevents activation of calpain.
# [8] = system: mice; assay: Echocardiograms of mice injected with taxol; assay type: in vivo
# Description: FIG. 5B: The bottom three panels of the figure attached, is from echocardiograms done on mice injected with taxol. These are the same mice for which the xenograph study was done (shown at the top of the figure). […] These are both measurements of contractility. […] Heart rate was not altered.
# Taxol causes cardiac arrhythmias. […] The recent data shown in the bottom three panels of the FIG. 5B, is information compiled from echocardiograms done on mice injected with taxol. These are the same mice upon which the xenograph study was done (shown at the top of the figure). […] These are both measurements of contractility, which was reversed by lithium pre-treatment. […] Heart rate was not altered. The cardiologist who performed the experiment at the request of the inventor(s) was quite impressed and is considering studies in human patients. There are studies in the literature showing that chemotherapy induced changes acutely in contractility can develop into long term heart rhythm problems.
# [9] = system: microtubule assembly; assay: Microtubule assembly; assay type: biochemical
# Experimental: FIG. 5: Paclitaxel speeds up microtubule assembly.
# The relative effects of paclitaxel-LiCl and paclitaxel-AV411 co-administration on microtubule assembly were also determined.
# [10] = system: calcium release; assay: Calcium release after low dose paclitaxel; assay type: in vivo, mice; details: low doses of paclitaxel
# Description: FIG. 11: Low dose paclitaxel decreases calcium release Lithium treatment prevents loss of calcium release.
# [11] = system: NCS-1; assay: NCS-1 levels in peripheral nerve and brain after low dose paclitaxel; assay type: in vivo, mice
# Description: FIG. 12: Low dose paclitaxel decreases NCS-1 levels in peripheral nerve, but not brain NCS-1 expression is maintained with lithium.
# [12] = system: calcium signaling in cells; assay: Protection of calcium signaling by combination treatment / calpastatin expression; assay type: cell-based; details: combination treatment with Li and calpastatin (expression of calpastatin in cells)
# Description: FIG. 7: Combination treatment protects calcium signaling.
# FIG. 8: Expression of calpastatin, a natural calpain antagonist, protects calcium signaling in cells.
# NCS-1 / inositol 1,4,5 trisphosphate receptor (InsP3R), sequence (P62166 2-190 limits assumed, species assumed): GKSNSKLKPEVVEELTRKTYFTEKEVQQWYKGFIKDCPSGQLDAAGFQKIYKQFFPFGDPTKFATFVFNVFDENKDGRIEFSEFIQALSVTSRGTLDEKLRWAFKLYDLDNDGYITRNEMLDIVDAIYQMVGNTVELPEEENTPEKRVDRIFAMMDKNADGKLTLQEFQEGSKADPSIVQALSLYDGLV
# NCS-1 (Homo sapiens, UniProt P62166), sequence (P62166 whole entry, species assumed): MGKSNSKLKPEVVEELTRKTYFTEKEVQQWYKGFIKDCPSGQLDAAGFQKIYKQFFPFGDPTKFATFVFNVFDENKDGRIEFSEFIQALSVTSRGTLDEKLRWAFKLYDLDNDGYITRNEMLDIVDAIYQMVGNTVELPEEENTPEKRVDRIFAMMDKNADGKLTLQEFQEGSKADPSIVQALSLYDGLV
molecule,measurement,setting,value
"[Cl-].[Li+] [LiCl, lithium chloride]",NCS-1 levels (Western blot),"[1]; 500 uM and 5.0 mM LiCl in the presence of Taxol, 6 hours, SHSY-5Y",protected from the Taxol-induced degradation of NCS-1
same,NCS-1 levels (Western blot),"[1]; LiCl alone (500 uM, 5.0 mM)",did not reduce NCS-1 levels
same,Tumor volume,[2],statistically significant decrease in tumor volume
same,Intracellular Ca2+ signals,[3]; 500 uM or 5.0 mM LiCl in the presence of Taxol,signals similar to that of non-treated cells
same,Intracellular Ca2+ signals,[3]; LiCl alone,"decreased the intracellular signals, but not to the extent seen with Taxol treatment"
CN(C)CCCN1c2ccccc2Sc2ccc(Cl)cc21 [chlorpromazine],NCS-1 binding to InsP3R,[4],"prevent neuronal calcium sensor 1 (NCS-1) from binding to the inositol 1,4,5 trisphosphate receptor (InsP3R)"
O=C([O-])[O-].[Li+].[Li+] [lithium carbonate],NCS-1 binding to InsP3R,[4],"prevent neuronal calcium sensor 1 (NCS-1) from binding to the inositol 1,4,5 trisphosphate receptor (InsP3R)"
CC(=O)O[C@H]1C(=O)[C@@]2(C)[C@H]([C@H](OC(=O)c3ccccc3)[C@]3(O)C[C@H](OC(=O)[C@H](O)[C@@H](NC(=O)c4ccccc4)c4ccccc4)C(C)=C1C3(C)C)[C@]1(OC(C)=O)CO[C@@H]1C[C@@H]2O [paclitaxel],NCS-1 levels (Western blot),"[1]; paclitaxel (Taxol) alone, 800 ng/mL, 6 hours",decreased NCS-1 levels
same,NCS-1 levels (Western blot),"[1]; paclitaxel (Taxol) alone, 800 ng/mL, 6 hours, listed as Taxol",NCS-1 degradation
same,Binding to NCS-1,[5],binds to NCS-1
same,Myelin damage,[6],evident myelin damage enlarged structures
same,Calpain activity,[7],increased calpain activity
same,End diastolic diameter and fractional shortening (contractility),[8]; 1 hour after taxol injection,end diastolic diameter and fractional shortening were altered
same,Heart rate,[8]; after taxol injection,not altered
same,Microtubule assembly,[9],accelerates microtubule assembly
same,Ca2+ response,"[3]; Taxol 800 ng/mL for 6 hours, stimulated with 1 uM ATP",response lower in amplitude than non-treated cells
same,Intracellular Ca2+ signals,"[3]; Taxol for 6 hours, 200 nM carbachol",reduced
same,Calcium release,[10],decreased calcium release
same,NCS-1 levels in peripheral nerve and brain,[11],"decreased NCS-1 levels in peripheral nerve, but not in the brain"
CCCC(CCC)C(=O)O [valproic acid],NCS-1 binding to InsP3R,[4],"prevent neuronal calcium sensor 1 (NCS-1) from binding to the inositol 1,4,5 trisphosphate receptor (InsP3R)"
B1,Calcium signaling,[12],protected calcium signaling
